Experimental data taken from article PMC3526353 (The Journal of Experimental Medicine, 2012).

Molecular target: receptor for advanced glycation end products (RAGE) (Homo sapiens, UniProt Q15109)
Assay: SPR
Format: binding

Chain of receptor for advanced glycation end products (RAGE) (Q15109 23-342 limits assumed): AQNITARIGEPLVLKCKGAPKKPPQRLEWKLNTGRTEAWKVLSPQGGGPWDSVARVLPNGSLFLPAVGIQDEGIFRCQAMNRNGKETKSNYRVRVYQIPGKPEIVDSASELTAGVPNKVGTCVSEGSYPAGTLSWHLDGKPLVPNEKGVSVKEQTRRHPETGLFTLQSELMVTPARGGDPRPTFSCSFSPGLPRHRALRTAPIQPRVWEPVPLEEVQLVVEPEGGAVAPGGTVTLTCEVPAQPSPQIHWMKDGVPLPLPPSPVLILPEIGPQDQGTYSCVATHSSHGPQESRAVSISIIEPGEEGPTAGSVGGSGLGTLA

CCCCCCCC/C=C\CCCCCCCC(=O)OC[C@@H](O)COP(=O)(O)O [LPA, 1-oleoyl-2-hydroxy-sn-glycero-3-phosphate]
Kd: 84.9 nM
